For one data set, the system named is L428 cells. In words: Intracellular drug release (LC-MS/MS, 24 hr). The format is cell-based. The conditions noted are these: Table 12, free drug @ 50 nM. On the procedure: (§1) Intracellular drug release. TFlα, L428, and HCT-15 cells were used for the study. Cells that had been cultured under normal conditions were harvested and washed into fresh medium at ˜5×10^5 cells/mL. For each treatment condition, 5-15×10^6 cells were plated in T25 or T150 flasks. cOKT9-5023 (8-drugs/Ab) was added at 1 μg/mL to cultures and they were incubated at 37° C., 5% CO2 for 24 hr. For suspension cells, a known volume of cell culture was harvested by centrifugation (500×g, 5 min, 4° C.), and an aliquot of the medium was removed and stored for mass spectral analysis (−20° C.). For adherent cells the medium was carefully removed (an aliquot stored for mass spectral analysis) and the cells lifted with trypsin-EDTA followed by centrifugation (500×g, 5 min, 4° C.) to collect the cell pellet. For both suspension and adherent cells, the harvested cell pellets were resuspended in ice cold PBS and an aliquot was removed for enumeration and determination of average cell diameters using a Vi-Cell XR2.03 cell viability analyzer (Beckman Coulter, Fullerton, CA). The remaining cell suspensions were pelleted (500×g, 5 min) and then washed once more with 1 mL of ice cold PBS. The resulting pellets were stored at −20° C.
(§2) Untreated samples were generated using untreated cell pellets and culture medium for use in calibration curves. Untreated cell pellets were spiked with 4 μL of 25× standard analyte. Both spiked and treated cell pellets were suspended by vortexing in 400 μL of MeOH containing internal standard and placed at −20° C. for 15 min. The samples were then centrifuged at 16,000×g and the supernatants were prepared for solid phase extraction. Untreated culture medium samples (0.5 mL) were spiked with 4 μL of 25× standard. Both spiked and treated culture media were mixed with 10 μL of internal standard and prepared for solid phase extraction. Samples were subjected to solid phase extraction and the recovered drug-containing solutions were dried and reconstituted for quantification by LC-MS/MS. To derive an equation for the quantitation of released drug in the experimental unknown samples, the peak area for each drug standard was divided by the peak area obtained for the internal standard. The resultant peak area ratios were plotted as a function of the standard spiked amounts and the data points were fitted to a curve using linear regression. The peak area ratios obtained for released drug to internal standard in the experimental samples were converted to drug amounts using the derived equation.
(§3) MDR cell lines that are CD71^+ are exposed to an LDC (1 μg/mL) comprised of and antibody targeting CD71 (cOKT9) and a quaternized MDR inhibitor (Tariquidar™). The LDC composition designated as cOKT9-gluc4-T was obtained from compound 36 of Scheme 6 and predominately contains LDCs having 8 D^+ units wherein D^+ is quaternized Tariquidar. The predominate LDC of the composition, after controlled hydrolysis of the succinimide ring system is represented by the structure of: […]

The test system of another data set is HCT-15 cells. The data set is described as follows: Intracellular drug release (LC-MS/MS, 24 hr). The format is cell-based. The conditions noted are these: Table 12, free drug @ 50 nM. As to the method: as §1, §2, §3
In another data set the test system is TF1a cells. The data set is described as follows: Intracellular drug release (LC-MS/MS, 24 hr). The format is cell-based. The conditions noted are these: Table 12. As to the method: as §1, §2, §3
Data set [1] deals with Hep3B hepatocellular carcinoma cells. The data set is described as follows: In vitro cytotoxicity (CellTiter-Glo, 96 h). The format is cell-based. The conditions noted are these: Table 10; cAC10 conjugate, 8 drug units/Ab; antigen-negative cells. As to the method:
(§4) In vitro assays. Cells cultured in log-phase growth were seeded for 24 h in 96-well plates containing 150 μL RPMI 1640 supplemented with 20% FBS. Serial dilutions of antibody-drug conjugates in cell culture media were prepared at 4× working concentrations; 50 μL of each dilution was added to the 96-well plates. Following addition of ADC, cells were incubated with test articles for 4 d at 37° C. After 96 h, growth inhibition was assessed by CellTiter-Glo™ (Promega, Madison, W1) and luminescence was measured on a plate reader. The IC50 value, determined in triplicate, is defined here as the concentration that results in a 50% reduction in cell growth relative to untreated controls.

Another data set has as its system DEL/BVR MDR+ ALCL cells. The format is cell-based. On the procedure: as §4
A further data set deals with L428 MDR+ HL cells. In words: In vitro cytotoxicity (CellTiter-Glo, 96 h). The format is cell-based. On the technique in general: ATP-based viability assays read luminescence as a measure of living cells.
Data set [2] can be described thus: Pharmacokinetics of radiolabeled antibody or ADC. Conditions: 1 mg/kg i.v., radiolabeled non-targeting ADC. The format is in vivo, rat. As to the method: PK test articles were radiolabeled using the following procedure.
Each test article was dosed once in replicate animals.

The next data set concerns DEL ALCL cells. The format is cell-based.
A further data set has as its system Karpas299 ALCL cells. In words: In vitro cytotoxicity (CellTiter-Glo, 96 h). The format is cell-based. As to the method:
as §4

Data set [3] has as its system L540cy Hodgkin lymphoma cells. In words: In vitro cytotoxicity (CellTiter-Glo, 96 h). The format is cell-based.
The test system of a further data set is RL cells. The data set is described as follows: In vitro cytotoxicity (CellTiter-Glo, 96 h). The format is cell-based. Conditions: Table 4. On the procedure:
as §4

A further data set has as its system Ramos NHL cells. In words: In vitro cytotoxicity (CellTiter-Glo, 96 h). The format is cell-based. The conditions noted are these: Table 4. On the procedure: as §4
Where [4] appears, read: Table 10, cAC10 conjugate, 8 drug units/Ab.
[5] abbreviates: Table 7, cAC10 conjugate of the Drug-Linker, 8 D+/Ab, 96 h.
[6] abbreviates: Table 4, quaternized auristatin E ADC, 8 D+/Ab.
The mark [7] stands for this setting: quaternized auristatin E ADC, 8 D+/Ab, CD30-, CD19+.

Read-outs that look alike come from different tables or passages of the source. A value given as a limit tells only on which side of the number the result lay.

Take `COc1cc2c(cc1OC)CN(CCc1ccc(NC(=O)c3cc(OC)c(OC)cc3NC(=O)c3cnc4ccccc4c3)cc1)CC2` [Free drug, Tariquidar]: in the data set with L428 cells, the “Intracellular drug, L428” value is 4.846 µM. The “extracellular drug, L428” value with L428 cells (parenthetic value) came to 47.0 nM. The “Intracellular drug, HCT-15” value in the data set on HCT-15 cells was 6.649 µM. In addition, in the data set with HCT-15 cells (parenthetic value), the “extracellular drug, HCT-15” value was found to be 44.3 nM. Moreover, in the data set on TF1a cells (free drug (Tariquidar) @ 50 nM), the “Intracellular drug, TF1a” value worked out at 3.575 µM. For the same molecule, the “extracellular drug, TF1a” value in the data set with TF1a cells (free drug @ 50 nM, parenthetic: free drug that remains outside the cell) is given as 43.8 nM.

As for `CC[C@H](C)[C@H](NC(=O)[C@H]1CCCC[N+]1(C)Cc1ccc(NC(=O)[C@H](CCC(=O)O)NC(=O)[C@@H](NC(=O)[C@H](CN)N2C(=O)C=CC2=O)C(C)C)cc1)C(=O)N(C)[C@H](C[C@@H](OC(C)=O)c1nc(C(=O)N[C@@H](Cc2ccccc2)C[C@H](C)C(=O)O)cs1)C(C)C` (stereo partly drawn) [Compound 113, (2R)-2-(((2S,3S)-1-(((1R,3R)-1-acetoxy-1-(4-(((2R,4S)-4-carboxy-1-phenylpentan-2-yl)carbamoyl)thiazol-2-yl)-4-methylpentan-3-yl)(methyl)amino)-3-methyl-1-oxopentan-2-yl)carbamoyl)-1-(4-((S)-2-((S)-2-((S)-3-amino-2-(2,5-dioxo-2,5-dihydro-1H-pyrrol-1-yl)propanamido)-3-methylbutanamido)-4-carboxybutanamido)benzyl)-1-methylpiperidin-1-ium], the “IC50, Hep3B, CD30- HCC” value in data set [1] was over 1000 ng/mL. For the same molecule, the “IC50, DEL/BVR, MDR+ ALCL” value in the data set on DEL/BVR MDR+ ALCL cells (setting [4]) worked out at 2 ng/mL. Moreover, in the data set with L428 MDR+ HL cells (setting [4]), the “IC50, L428, MDR+ HL” value is reported as 0.3 ng/mL.

As for `CCCO[C@H](C[C@H](C(C)C)N(C)C(=O)[C@@H](NC(=O)[C@H]1CCCC[N+]1(C)Cc1ccc(O[C@@H]2O[C@H](C(=O)O)[C@@H](O)[C@H](O)[C@H]2O)c(NC(=O)CCNC(=O)[C@H](CN)N2C(=O)C=CC2=O)c1)[C@@H](C)CC)c1nc(C(=O)N[C@@H](Cc2ccccc2)C[C@H](C)C(=O)O)cs1` (stereo partly drawn) [Compound 80, (2R)-1-(3-(3-((S)-3-amino-2-(2,5-dioxo-2,5-dihydro-1H-pyrrol-1-yl)propanamido)propanamido)-4-(((2S,3R,4S,5S,6S)-6-carboxy-3,4,5-trihydroxytetrahydro-2H-pyran-2-yl)oxy)benzyl)-2-(((2S,3S)-1-(((1R,3R)-1-(4-(((2R,4S)-4-carboxy-1-phenylpentan-2-yl)carbamoyl)thiazol-2-yl)-4-methyl-1-propoxypentan-3-yl)(methyl)amino)-3-methyl-1-oxopentan-2-yl)carbamoyl)-1-methylpiperidin-1-ium], the “clearance / exposure profile compared with unconjugated antibody (FIG. 12-14)” value in data set [2] is “cleared from circulation much more rapidly than the unmodified antibody”.

With `CC[C@H](C)[C@H](NC(=O)[C@H]1CCCC[N+]1(C)Cc1ccc(O[C@@H]2O[C@H](C(=O)O)[C@@H](O)[C@H](O)[C@H]2O)c(NC(=O)CCNC(=O)[C@H](CN)N2C(=O)C=CC2=O)c1)C(=O)N(C)[C@H](C[C@@H](OC(C)=O)c1nc(C(=O)N[C@@H](Cc2ccccc2)C[C@H](C)C(=O)O)cs1)C(C)C` (stereo partly drawn) [Compound 104], the “IC50, DEL, ALCL” value in the data set with DEL ALCL cells (setting [5]) was 2 ng/mL; in the data set with DEL ALCL cells (Table 11, cAC10 conjugate, 8-drugs/mAb) it was 2 ng/mL. In addition, in the data set with Karpas299 ALCL cells (Table 7, cAC10 (anti-CD30) conjugate of the Drug-Linker, 8 D+/Ab, 96 h), the “IC50, Karpas299, ALCL” value came to 0.6 ng/mL. Also, the “IC50, Hep3B, CD30- HCC” value in [1] is over 1000 ng/mL. For the same molecule, the entries for the “IC50, DEL/BVR, MDR+ ALCL” value in the data set on DEL/BVR MDR+ ALCL cells (setting [5]) and in the data set with DEL/BVR MDR+ ALCL cells (setting [4]) were 3 ng/mL and 4 ng/mL, respectively. In addition, the “IC50, L540cy, HL” value in [3] (setting [5]) is on record as 4 ng/mL. Also, the results for the “IC50, L428, MDR+ HL” value with L428 MDR+ HL cells (setting [5]) and with L428 MDR+ HL cells (setting [4]) were 0.5 ng/mL and 0.4 ng/mL, respectively.

With `CC[C@H](C)[C@@H]([C@@H](CC(=O)N1CCC[C@H]1[C@H](OC)[C@@H](C)C(=O)N[C@H](C)[C@@H](O)c1ccccc1)OC)N(C)C(=O)[C@@H](NC(=O)[C@H](C(C)C)[N+](C)(C)Cc1ccc(O[C@@H]2O[C@H](C(=O)O)[C@@H](O)[C@H](O)[C@H]2O)c(NC(=O)CCNC(=O)[C@H](CN)N2C(=O)C=CC2=O)c1)C(C)C` [Compound 8], the “clearance / exposure profile compared with unconjugated antibody (FIG. 12-14)” value in data set [2] is on record as “PK properties identical to that of unmodified antibody through 7 days”.

Regarding `CC[C@H](C)[C@H](NC(=O)[C@H]1CCCC[N+]1(C)Cc1ccc(NC(=O)[C@H](C)NC(=O)[C@@H](NC(=O)[C@H](CN)N2C(=O)C=CC2=O)C(C)C)cc1)C(=O)N(C)[C@H](C[C@@H](OC(C)=O)c1nc(C(=O)N[C@@H](Cc2ccccc2)C[C@H](C)C(=O)O)cs1)C(C)C` (stereo partly drawn) [Compound 32, (2R)-2-(((2S,3S)-1-(((1R,3R)-1-acetoxy-1-(4-(((2R,4S)-4-carboxy-1-phenylpentan-2-yl)carbamoyl)thiazol-2-yl)-4-methylpentan-3-yl)(methyl)amino)-3-methyl-1-oxopentan-2-yl)carbamoyl)-1-(4-((S)-2-((S)-2-((S)-3-amino-2-(2,5-dioxo-2,5-dihydro-1H-pyrrol-1-yl)propanamido)-3-methylbutanamido)propanamido)benzyl)-1-methylpiperidin-1-ium], the “IC50, Hep3B, CD30- HCC” value in [1] was over 1000 ng/mL. Moreover, the “IC50, DEL/BVR, MDR+ ALCL” value with DEL/BVR MDR+ ALCL cells (setting [4]) was determined as 4 ng/mL. For the same molecule, the “IC50, L428, MDR+ HL” value with L428 MDR+ HL cells (setting [4]) turned out to be 1 ng/mL.

B1: hBU12-14: "vcPAB4-AE ... obtained from compound 14 of Scheme 2 and ... monoclonal antibody hBU12, which targets C19+ cells" (conjugate, chains of the INN, looked up)
VH: QVQLQESGPGLVKPSQTLSLTCTVSGGSISTSGMGVGWIRQHPGKGLEWIGHIWWDDDKRYNPALKSRVTISVDTSKNQFSLKLSSVTAADTAVYYCARMELWSYYFDYWGQGTLVTVSS
VL: EIVLTQSPATLSLSPGERATLSCSASSSVSYMHWYQQKPGQAPRLLIYDTSKLASGIPARFSGSGSGTDFTLTISSLEPEDVAVYYCFQGSVYPFTFGQGTKLEIK
modifications: vcPAB4-auristatin E drug-linker 14
Take B1: the “viable cells remaining at the bottom of the dose-response curve, Karpas-299” value in the data set with Karpas299 ALCL cells (Table 4, parenthetic value) worked out at 10%. In the data set with Karpas299 ALCL cells (setting [6]), the “IC50 for cell growth inhibition, Karpas-299” value is 3903 ng/mL. Also, the “viable cells remaining at the bottom of the dose-response curve, RL” value in the data set on RL cells (parenthetic value) was determined as 21%. For the same molecule, the “IC50 for cell growth inhibition, RL” value with RL cells (setting [7]) amounted to 2110 ng/mL. In the data set with Ramos NHL cells (parenthetic value), the “viable cells remaining at the bottom of the dose-response curve, Ramos” value worked out at 0%. Besides, the “IC50 for cell growth inhibition, Ramos” value in the data set with Ramos NHL cells (setting [7]) came to 0.7 ng/mL. Also, the “viable cells remaining at the bottom of the dose-response curve, L540cy parental” value in data set [3] (Table 4, parenthetic value) was determined as 44%. In addition, the “IC50 for cell growth inhibition, L540cy parental” value in [3] (setting [6]) turned out to be 5080 ng/mL. The “viable cells remaining at the bottom of the dose-response curve, L428” value with L428 MDR+ HL cells (Table 4, parenthetic value) worked out at 41%. Moreover, the “IC50 for cell growth inhibition, L428” value in the data set with L428 MDR+ HL cells (setting [6]) was 8614 ng/mL.

These data come from US20240247030A1, “TARGETED DELIVERY OF TERTIARY AMINE-CONTAINING DRUG SUBSTANCES” (Seagen Inc., priority 2014, published 2024).
